Reference: US10870638B2, “Pyridazinone compound or its salt, and herbicide containing it” (ISHIHARA SANGYO KAISHA, LTD., priority 2016, dated 2020)

Key:
Experiment in all cases: Test Example 1: foliar treatment, growth inhibition rate on 14th day
Format in all cases: in vivo
Settings in all cases: active ingredient amount 31 g/ha, 14th day after application, visual, 0 = non-treated, 100 = complete kill
[1] = tested on: soybean (Glycine max Merr.)
Outline: (§1)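 Plants in upland soil were sprayed on the foliage at early leaf stages (wild oat 0.4–1.2, rice 0.2–2.7, green foxtail 0.5–3.2, soybean primary leaf) with wettable powder or emulsifiable concentrate formulations. Spray volume was 1,000 L/ha water containing 0.1 vol% spreader, at prescribed active-ingredient rates. Growth inhibition (0 = untreated, 100 = complete kill) was scored visually on day 14.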

corn (Zea mays L.) = tested on: corn (Zea mays L.)
Outline: (§2)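 Visual 0–100% inhibition scoring (100 = complete kill) at 14 days after foliar treatment of soil-grown seedlings at species-specific leaf stages, with the compound sprayed as a wettable powder or emulsifiable concentrate dilution.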

[2] = tested on: wild oat (Avena fatua L.)
Outline: as §1

[3] = tested on: crabgrass (Digitaria sanquinalis L.)
Outline: as §2

[4] = tested on: italian ryegrass (Lolium multiflorum Lam.)
Outline: as §2

[5] = tested on: wheat (Triticum aestivum L.)
Outline: as §2

[6] = tested on: barnyardgrass (Echinochloa crus-qalli L.)
Outline: as §2

[7] = tested on: green foxtail (Setaria viridis L.)
Outline: as §1

rice (Oryza sativa L.) = tested on: rice (Oryza sativa L.)
Outline: as §1

[8] = tested on: redroot pigweed (Amaranthus retroflexus L.)
Outline: as §2

| Compound | Growth inhibition rate (%) Soybean [1] [%] | Growth inhibition rate (%) Corn (corn (Zea mays L.)) [%] | Growth inhibition rate (%) Wild oat [2] [%] | Growth inhibition rate (%) Crabgrass [3] [%] | Growth inhibition rate (%) Italian ryegrass [4] [%] | Growth inhibition rate (%) Wheat [5] [%] | Growth inhibition rate (%) Barnyardgrass [6] [%] | Growth inhibition rate (%) Green foxtail [7] [%] | Growth inhibition rate (%) Rice (rice (Oryza sativa L.)) [%] | Growth inhibition rate (%) Redroot pigweed [8] [%] |
| --- | --- | --- | --- | --- | --- | --- | --- | --- | --- | --- |
| Cc1ccc(Oc2cnc3cc(Cl)ccc3n2)cc1-c1c(OC(=O)Cc2ccccc2)c(C)nn(C)c1=O [Compound 3-47] | 20 | 40 | 99 | 99 | 99 | 98 | 100 | 100 | 30 | 0 |
| Cc1ccc(Oc2cnc3cc(Cl)ccc3n2)cc1-c1c(OC(=O)CC(C)(C)C)c(C)nn(C)c1=O [Compound 3-53] | 0 | 0 | 60 | 93 | 65 | 0 | 100 | 95 | 40 | 0 |
| CCCSC(=O)Oc1c(C)nn(C)c(=O)c1-c1cc(Oc2cnc3cc(Cl)ccc3n2)ccc1C [Compound 3-56] | 30 | 40 | 99 | 99 | 98 | 93 | 98 | 100 | 0 | 0 |
| Cc1ccc(Oc2cnc3cc(Cl)ccc3n2)cc1-c1c(OC(=O)OC(C)C)c(C)nn(C)c1=O [Compound 3-60] | 10 | 20 | 98 | 95 | 95 | 93 | 99 | 100 | 10 | 0 |
| Cc1ccc(Oc2cnc3cc(Cl)ccc3n2)cc1-c1c(OC(=O)OC2CC(C)CCC2C(C)C)c(C)nn(C)c1=O (centres unmarked) [Compound 3-61] | 0 | 20 | 0 | 20 | 0 | 0 | 0 | 60 | 0 | 0 |
| Cc1ccc(Oc2cnc3cc(Cl)ccc3n2)cc1-c1c(OC(=S)Oc2ccccc2)c(C)nn(C)c1=O [Compound 3-62] | 20 | 60 | 99 | 99 | 93 | 90 | 100 | 99 | 0 | 0 |
| Cc1ccc(Oc2cnc3cc(Cl)ccc3n2)cc1-c1c(OC(=S)Sc2ccccc2)c(C)nn(C)c1=O [Compound 3-63] | 0 | 40 | 98 | 98 | 90 | 83 | 100 | 100 | 0 | 0 |
| Cc1ccc(Oc2cnc3cc(Cl)ccc3n2)cc1-c1c(OC(=O)N(C)C)c(C)nn(C)c1=O [Compound 3-65] | 10 | 40 | 75 | 83 | 85 | 98 | 100 | 99 | 0 | 0 |
| Cc1ccc(Oc2cnc3cc(Cl)ccc3n2)cc1-c1c(OC(=O)N(C)c2ccccc2)c(C)nn(C)c1=O [Compound 3-66] | 0 | 25 | 50 | 20 | 40 | 10 | 10 | 35 | 0 | 0 |
| Cc1ccc(Oc2cnc3cc(Cl)ccc3n2)cc1-c1c(OC(=S)N(C)C)c(C)nn(C)c1=O [Compound 3-67] | 0 | 50 | 100 | 95 | 99 | 99 | 100 | 100 | 40 | 0 |
| CCS(=O)(=O)Oc1c(C)nn(C)c(=O)c1-c1cc(Oc2cnc3cc(Cl)ccc3n2)ccc1C [Compound 3-68] | 0 | 20 | 90 | 95 | 83 | 30 | 100 | 100 | 0 | 0 |
| Cc1ccc(Oc2cnc3cc(Cl)ccc3n2)cc1-c1c(OS(=O)(=O)C2CC2)c(C)nn(C)c1=O [Compound 3-70] | 10 | 30 | 60 | 88 | 40 | 0 | 98 | 98 | 0 | 0 |
| Cc1ccc(S(=O)(=O)Oc2c(C)nn(C)c(=O)c2-c2cc(Oc3cnc4cc(Cl)ccc4n3)ccc2C)cc1 [Compound 3-71] | 0 | 0 | 99 | 90 | 98 | 95 | 100 | 100 | 15 | 0 |
| C=CCOc1c(C)nn(C)c(=O)c1-c1cc(Oc2cnc3cc(Cl)ccc3n2)ccc1C [Compound 3-74] | 0 | 20 | 25 | 20 | 0 | 0 | 93 | 95 | 0 | 0 |
